Test results as given in patent US6716829B2, “Aldosterone antagonist and cyclooxygenase-2 inhibitor combination therapy to prevent or treat inflammation-related cardiovascular disorders” (Pharmacia Corporation, priority 2000, dated 2004).
“And” between values parts separate entries of the source, which are not always exact repeats. Equal entries are not always repeated. “Also recorded” adds a separate entry of the source.

What was measured:
[1] = test system: aldosterone-infused, saline-drinking, uni-nephrectomized rats; assay: Assay B: heart histology (hematoxylin&eosin), vascular inflammatory lesions and myocardial injury; type: in vivo, Male Sprague Dawley rats; settings: eplerenone 100 mpk p.o., 0.6% KCl group, 4 weeks
Protocol: Assay B: In Vivo Aldosterone Infusion Model Male Sprague Dawley rats (n=39; BW=250 g) […] Uni-nephrectomy performed during implantation of mini-pumps 2. Aldosterone ([…], sc via alzet minipump) 2. […] 1. […] Sacrifice after 4 weeks. Hearts were harvested and divided by half through a transverse section at the mid-ventricles: The upper half was stored into formalin. The bottom part was snap-frozen in liquid nitrogen for biochemical analysis. Hearts were stained with hematoxylin&eosin and the collagen specific dye picro-sirius red and were analyzed for determination of interstitial collagen volume fraction and morphologic abnormalities (i.e. necrosis, vascular injury).

[2] = test system: Intracellular adhesion molecule-1 (ICAM-1); assay: Assay C: ICAM-1 mRNA in heart by TaqMan RT-PCR; type: in vivo, Male Sprague-Dawley rats; settings: for ICAM mRNA (AU): relative to cyclophilin expression, mean ± SEM, eplerenone dose 100 mg/kg/day; for ICAM (AU): mRNA; for ICAM-1 mRNA expression: myocardium, aldosterone + salt, 7, 14, 30 days, eplerenone 100 mg/kg/day
Protocol: The procedure of Assay B was expanded upon in a further study. […] Myocardial tissue from animals in each treatment group was examined after 7, 14, or 30 days of treatment.
Potassium chloride supplementation was added to the saline solution in order to prevent the potential hypokalemia associated with aldosterone excess.
At the time of the surgery, an Alzet 2002 osmotic minipump (Alza Corp., Palo Alto, Calif.) containing either vehicle (9% ethanol/87% propylene glycol/4% dH2O) or 1.0 mg/mL d-aldosterone (Sigma Chemical, St. Louis, Mo.) was inserted subcutaneously at the nape of the neck. Aldosterone was administered at a dose of 0.75 µg/hour. […] Animals were sacrificed from each group (n=8-13) after 7, 14, or 30 days of treatment.
The fluorogenic 5′-nuclease assay (TaqMan PCR) using Applied Biosystems' 7700 Sequence Detection System (Applied Biosystems, Foster City, Calif.) allowed for real time detection/quantitation of a specific gene by monitoring the increase in fluorescence of a gene-specific, dye-labeled oligonucleotide probe. Probes for target and reference genes were labeled at the 5′-end with a 6-carboxyfluorescein (6FAM) reporter dye and at the 3′-end with a 6-carboxy-N,N,N′,N′-tetramethylrhodamine (TAMRA) quencher dye. When the probe was annealed to the target gene, fluorescence of 6FAM was prevented by the close proximity of TAMRA. The exonuclease activity of Taq polymerase released the dyes from the oligonucleotide probe by displacing the probe from the target sequence resulting in fluorescence excitation in direct proportion to the amount of target message present. Data analysis was performed using the Sequence Detection System software from Applied Biosystems.
All primers and probes were designed using Primer Express software supplied with the 7700 Sequence Detection System and synthesized by Applied Biosystems. Standard curves using 5-fold dilutions of total RNA (from 200 ng to 320 pg) were performed to determine the efficiency of each primer/probe set in the TaqMan reaction prior to the analysis of the experimental samples. Primer/probe sets were designed from known sequences of rat genes to be analyzed. All target gene values were normalized to a reference gene, constitutively expressed cyclophilin. Primer/probe set sequences can be found in Table 8.
RNA was extracted from frozen (−80° C.) rat heart tissue using the Totally RNA Isolation Kit (Ambion, Inc., Austin, Tex.). Tissue was crushed using a stainless steel mortar and pestle, which had been chilled to −80° C. and transferred to a dounce homogenizer (Kontes, Vineland, N.J.) containing 3-10 mL cold denaturation buffer. Tissue was homogenized and transferred to a sterile, 15 mL polypropylene centrifuge tube. An equal volume of phenol:chloroform:isoamyl alcohol (25:24:1) was added, samples were shaken vigorously for 1 min, and incubated on ice for at least 15 min. Samples were centrifuged for 30 min at 10,000g. The aqueous phase was removed, 1/10 volume of a sodium acetate solution (3.0 M NaOAc pH 4.5) was added, samples were shaken or inverted for 10 seconds, and acid-phenol (premixed with isoamyl alcohol):chloroform (5:1, Ambion, Inc.) was added at an volume equivalent to the starting sample volume. Samples were shaken vigorously for 1 min, followed by a 15-min incubation on ice, and centrifuged for 30 min at 10,000 g. The aqueous phase removed and placed in a clean polypropylene tube. An equal volume of isopropanol (Sigma, St. Louis, Mo.) was added and the samples were mixed and incubated overnight at −20° C. The samples were centrifuged for 30 min at 10,000 g, the supernatant was removed and the RNA pellet was resuspended in DNAse/RNAse-free water. Samples were frozen at −80° C. for at least 2 hours, thawed on wet ice, and diluted for quantitation.

osteopontin = assay: Assay B: osteopontin immunohistochemistry in the heart; type: in vivo, Male Sprague Dawley rats; settings: aldosterone-infused rats, eplerenone 100 mpk, increased dietary potassium group
Protocol: Assay B: In Vivo Aldosterone Infusion Model Male Sprague Dawley rats (n=39; BW=250 g) 2. Aldosterone (0.75 mg/hr, sc via alzet minipump) 2. […] Determination of osteopontin and COX-2 was performed by quantitative RT-PCR (Taqman). Osteopontin was also identified in the heart by immunohistochemistry.

[3] = test system: coronary arteries of angiotensin II/salt-treated animals; assay: Assay A: heart histology (hematoxylin&eosin), vascular inflammatory lesions and myocardial injury; type: in vivo, Male Wistar rats; settings: eplerenone 100 mpk; for Vascular inflammation and myocardial injury in the heart: angiotensin II infused rats, aldosterone replacement in adrenalectomized rats
Description: Sacrifice by exanguination after 4 weeks. Blood was be collected in dry tubes for determination of serum electrolytes and in EDTA-containing tubes for measurement of aldosterone and corticosterone levels Hearts were stained with hematoxylin&eosin and have been analyzed for determination of morphologic abnormalities (i.e. necrosis, vascular injury).

[4] = group mean, data used for Table 17 (7-day protocol)
[5] = group mean, data used for Table 18 (14-day protocol)
[6] = group mean, data used for Table 19 (30-day protocol)

Structure (SMILES)	Vascular inflammatory changes / myocardial injury [1]	ICAM mRNA (AU) ([2]; after 7 days of treatment)	ICAM mRNA (AU) ([2]; after 14 days of treatment)	ICAM mRNA (AU) ([2]; after 30 days of treatment)	ICAM (AU) [2, 4]	ICAM (AU) [2, 5]	ICAM (AU) [2, 6]	ICAM (AU) ([2]; individual rats, data used for Table 17 (7-day protocol), incl. rat marked * excluded from statistics, listed as Eplerenone + aldosterone + salt)	ICAM (AU) ([2]; individual rats, data used for Table 18 (14-day protocol), incl. rat marked * excluded from statistics, listed as Eplerenone + aldosterone + salt)	ICAM (AU) ([2]; individual rats, data used for Table 19 (30-day protocol), incl. rat marked * excluded from statistics, listed as Eplerenone + aldosterone + salt)	ICAM-1 mRNA expression [2]	Osteopontin expression in the heart (immunostaining) (osteopontin)	Osteopontin expression in the heart (immunostaining) (osteopontin; listed as eplerenone)	Vascular inflammation and myocardial injury in the heart [3]	Animals with vascular inflammatory changes (lesions) in the coronary arteries ([3]; of ten animals per group, angiotensin II/salt, 4 weeks)	ICAM (AU) ([2]; individual rats, data used for Table 17 (7-day protocol), incl. rat marked * excluded from statistics, listed as Aldosterone + salt)	ICAM (AU) ([2]; individual rats, data used for Table 18 (14-day protocol), incl. rat marked * excluded from statistics, listed as Aldosterone + salt)	ICAM (AU) ([2]; individual rats, data used for Table 19 (30-day protocol), incl. rat marked * excluded from statistics, listed as Aldosterone + salt)
COC(=O)[C@@H]1CC2=CC(=O)CC[C@]2(C)[C@@]23O[C@@H]2C[C@@]2(C)[C@@H](CC[C@@]24CCC(=O)O4)[C@H]13 [Eplerenone]	prevention; also recorded: completely prevented	0.83 AU	1.19 AU	1.22 AU	0.83 AU	1.19 AU	1.22 AU	0.91 AU and 0.89 AU (2×) and 0.40 AU and 1.23 AU and 0.58 AU and 1.00 AU	1.20 AU and 1.36 AU and 0.95 AU and 1.26 AU and 1.56 AU and 0.98 AU (2×) and 1.51 AU and 0.79 AU and 1.72 AU and 0.83 AU	1.54 AU and 2.06 AU and 1.01 AU and 1.21 AU and 1.26 AU and 1.06 AU and 0.60 AU and 0.99 AU and 2.92 AU	inhibition; also recorded: significantly reduced	prevented the expression of osteopontin	prevention	prevention	one of the ten			
C[C@]12CCC(=O)C=C1CC[C@@H]1[C@@H]2[C@@H](O)C[C@]2(C=O)[C@@H](C(=O)CO)CC[C@@H]12 [Aldosterone]	severe vascular inflammatory lesions	1.22 AU	1.47 AU	1.81 AU	1.22 AU	1.47 AU	1.81 AU				upregulated at day 14 and 30	clearly identified in the media of coronary arteries		restored the severe coronary and myocardial inflammation and injury		1.39 AU and 0.80 AU and 1.09 AU and 1.61 AU and 1.11 AU and 1.15 AU and 1.56 AU and 1.06 AU and 1.68 AU	1.16 AU and 1.18 AU and 1.75 AU and 1.15 AU and 1.91 AU and 1.19 AU and 1.82 AU and 1.57 AU and 1.84 AU	2.67 AU and 1.63 AU and 1.69 AU and 1.50 AU and 1.54 AU
